{
  "source": "patent US6790644B2",
  "about": "“1,3-dicarbonyl-dioxygenase—a new c-c-bond cleaving enzyme” (Biocatalytics, Inc., priority 2001, dated 2004)",
  "molecules": {"B1": {"name": "1,3-dicarbonyl-dioxygenase: Purified A. johnsonii enzyme, about 67 kDa, subunits of about 16.6 kDa (SEQ ID NO: 2), cleaves 1,3-dicarbonyl compounds with molecular oxygen (protein)", "chain": "MDYCNKKHTAEEYVKISDNNYVPFPEAFSDGGITWQLLHSSPETSSWTAIFNCPAGSSFASHIHAGPGEYFLTKGKMEVRGGEQEGGSTAYAPSYGFESSGALHGKTFFPVESQFYMTFLGPLNFIDDNGKVIASIGWAEAQGAWLATKNEAA"}},
  "key": {"CCCCCC(=O)CC(C)=O": {"tested_on": "CCCCCC(=O)CC(C)=O", "assay": "purified protein, by the assay type", "conditions": "other: apparent; photometric, oxygen-saturated buffer, substrate 10-200 μM; pH 7.5; 25.0 °C"}, "CC(=O)C1CCCCC1=O": {"tested_on": "CC(=O)C1CCCCC1=O", "assay": "purified protein, by the assay type", "conditions": "other: apparent; photometric, oxygen-saturated buffer, substrate 10-200 μM; pH 7.5; 25.0 °C"}, "CC(=O)C(C)C(C)=O": {"tested_on": "CC(=O)C(C)C(C)=O", "assay": "purified protein, by the assay type", "conditions": "other: apparent; photometric, oxygen-saturated buffer, substrate 10-200 μM; pH 7.5; 25.0 °C"}, "CCCCC(=O)CC(C)=O": {"tested_on": "CCCCC(=O)CC(C)=O", "assay": "purified protein, by the assay type", "conditions": "other: apparent; photometric, oxygen-saturated buffer, substrate 10-200 μM; pH 7.5; 25.0 °C"}, "CC(=O)CC(=O)C(C)(C)C": {"tested_on": "CC(=O)CC(=O)C(C)(C)C", "assay": "purified protein, by the assay type", "conditions": "other: apparent; photometric, oxygen-saturated buffer, substrate 10-200 μM; pH 7.5; 25.0 °C"}, "CC(=O)C1CCCC1=O": {"tested_on": "CC(=O)C1CCCC1=O", "assay": "purified protein, by the assay type", "conditions": "other: apparent; photometric, oxygen-saturated buffer, substrate 10-200 μM; pH 7.5; 25.0 °C"}, "Salmonella typhimurium": {"tested_on": "Salmonella typhimurium", "conditions": "cited from earlier work"}, "tRNA": {"tested_on": "tRNA", "conditions": "cited from earlier work"}, "[1]": {"biological_target": "T1, 1,3-dicarbonyl-dioxygenase (Acinetobacter johnsonii, UniProt Q8GNT2)", "assay": "Determination of enzyme-activity and stability versus pH and additives", "type": "physicochemical", "description": "Activity measurements were performed with the oxygen-electrode, with KH2PO4-buffers adjusted to various pH-values [5.0-9.0]. For stability measurements, the enzyme was diluted ten-fold and incubated at various pH-values [5.0-9.0]. The activity was measured periodically with the UV-activity-assay."}, "[2]": {"biological_target": "T1, 1,3-dicarbonyl-dioxygenase", "assay": "Substrate spectrum / apparent kinetic constants of purified 1,3-dicarbonyl-dioxygenase (UV assay and oxygen electrode)", "description": "(§1) The reaction rates were determined by using the microcomputer regression program provided with the spectrophotometer (Winspec) based on the first ten absorbance measurements made at 5-s intervals.\nSubstrates were dissolved at a concentration of 0.001-1 mM in KH2PO4-buffer, 50 mM, pH 7.5 using a 10 mM stock solution. Duplicate absorption-measurements of 20 different dilutions were performed at 25° C. The molar absorption coefficients were calculated by linear regression.\n(§2) Oxygen consumption during the enzyme reaction was measured with an oxygen-electrode-cell (Digital Oxygen System Model 10, Rank Brothers Ltd., Cambridge, England) as described previously (Beechey, R. B. and Ribbons, D. W. (1971). ‘Methods in Microbiology’.V. 6B. Edited by J. R. Norris and D. W. Ribbons. Academic press, London. ‘Oxygen electrode measurements’ (Chapter II) pp. 29-52.). The reaction mixture contained air-saturated KH2PO4-buffer, 50 mM, pH 7.5 at 25° C. (thermostat). The oxygen-electrode was calibrated by the sodium-sulfite-method. Varying concentrations of substrate (0.01-0.3 mM) were added and the resulting decrease of oxygen was determined.\nAssuming the Michaelis-Menten-equation, Vmax and Ks values were calculated by non-linear curve-fit by the program microcal-origin. KO2 was estimated by polarographic methods, adding non limiting amounts of substrate (0.5-1 mM) and graphically determining the oxygen concentration at the point of half of the maximum activity. Ks-values were similarly confirmed by polarographic methods, by stepwise addition of substrate to a final concentration of 20-150 μM."}, "[3]": {"conditions": "cited from earlier work"}, "[4]": {"biological_target": "T1, 1,3-dicarbonyl-dioxygenase", "assay": "Reaction analysis with purified enzyme by in situ 1H-NMR / HPLC", "type": "biochemical", "conditions": "no cofactor added"}, "[5]": {"biological_target": "T2, recombinant 1,3-dicarbonyl-dioxygenase (expressed in E.coli) (Acinetobacter johnsonii, UniProt Q8GNT2)", "T2 construct": "made in house; host or cells: E. coli XL1 Blue, plasmid pMS470 (tac promoter, NdeI/HindIII)", "assay": "Relative activity of recombinant protein at non-limiting substrate concentrations", "type": "biochemical", "conditions": "relative activity, acetylacetone = 1.00, non-limiting substrate concentrations", "description": "Expression constructs were expressed in E.coli XL1 Blue (Stratagene, La Jolla, Calif.), which was grown to an OD of 1 at 30° C. on rotatory shakers in erlenmeyer flasks, then induced with IPTG (0.3 mM) and incubated for another 5 hours.\nas §1, §2"}, "[6]": {"biological_target": "wild-type 1,3-dicarbonyl-dioxygenase (Acinetobacter johnsonii, UniProt Q8GNT2)", "assay": "Relative activity of wild-type enzyme at non-limiting substrate concentrations", "type": "biochemical", "conditions": "relative activity, acetylacetone = 1.00, non-limiting substrate concentrations", "description": "as §1, §2"}, "[7]": {"biological_target": "T1, 1,3-dicarbonyl-dioxygenase", "assay": "Products of various substrates determined by HPLC (cleavage stoichiometry, partially purified enzyme)", "type": "biochemical", "conditions": "substrate 4 mM, 25° C., one hour", "from_the_text": "The products of the enzyme reaction were identified directly from the reaction mixture by in situ ^1H-NMR-spectroscopy (Pokorny, D., L. Brecker, M. Pogorevc, H. Griengl, W. Steiner, T. Kappe, and D. W. Ribbons. 1999. Proton-Nuclear Magnetic Resonance Analyses of the Substrate Specificity of a β-Ketolase from Pseudomonas putida, Acetopyruvate Hydrolase. J. Bacteriol. 181: 5051-5059.). Therefore a 200 MHz narrow bore magnet (Varian Gemini™ 2000, Varian, Inc., Palo Alto, Calif.) and a 5 mm broadband probe head were used. The NMR tube was rotated at 20 rps. For a lock a D2O vortex capillary was added to avoid ^1H/D exchange reactions. The overwhelming water-signal was suppressed with a presaturation method (Guéron, M., P. Plateau and M. Decorps. 1991. Solvent signal suppression in NMR. Prog. NMR Spectrosc. 23: 135-209. Hore, J. P. 1989. Solvent suppression. p. 64. In N. J. Oppenheimer and J. T. James (eds.), Methods Enzymol. 176. Academic Press, Inc., San Diego.). The following parameters were adjusted for a ^1H-frequency of 200 MHz: presaturation-duration of 1.0 s, ^1H-pulse-angle of 90, an acquisition-time of 2.0 s and a relaxation delay of 1.5 s. 64 Scans were accumulated and after a zero filling to 32 k datapoints the free induction decay was Fourier transformed. The water signal (4.70 ppm) was used as a reference. For standard reaction analytics HPLC-measurements were performed (Hewlett-Packard, column: Aminex-HPX-87H, UV- and RI-detector, eluent Sulfuric acid 0.005 M).\nThe cleavage-stoichiometry of several non-symmetrical substrates was also investigated, in order to be able to determine the regiospecificity of the enzyme. This was done by conversion of the respective substrate with partially purified enzyme. Methylglyoxal and acetate formed were measured by HPLC. Remaining substrate was calculated."}, "[8]": {"conditions": "glycerol 10%, glucose 12.5%, ascorbate 1 mM, bovine serum albumin 1-20 mg/mL, dithiothreitol 1 mM, mercaptoethanol 1 mM"}, "[9]": {"conditions": "repeated exposure, peroral and inhalation routes"}},
  "note": "Read-outs that look alike come from different tables or passages of the source.",
  "data": [
    {"molecule": "1,3-dicarbonyl-dioxygenase (Acinetobacter johnsonii)", "values": [
      {"measurement": "Km", "setting": "CCCCCC(=O)CC(C)=O", "value": "7.5 ± 2.1", "unit": "µM"},
      {"measurement": "Km", "setting": "CC(=O)C1CCCCC1=O", "value": "18.1 ± 4.2", "unit": "µM"},
      {"measurement": "Km", "setting": "CC(=O)C(C)C(C)=O", "value": "23.1 ± 6.8", "unit": "µM"},
      {"measurement": "Km", "setting": "CCCCC(=O)CC(C)=O", "value": "5.9 ± 1.5", "unit": "µM"},
      {"measurement": "Km", "setting": "CC(=O)CC(=O)C(C)(C)C", "value": "14.2 ± 3.7", "unit": "µM"},
      {"measurement": "Km", "setting": "CC(=O)C1CCCC1=O", "value": "21.0 ± 6.1", "unit": "µM"}
    ]},
    {"molecule": "O=C(CC(=O)c1ccccc1)c1ccccc1", "note": "[dibenzoylmethane]", "values": [
      {"measurement": "inhibition of mutagenicity of 2-naphthohydroxamic acid", "setting": "Salmonella typhimurium", "value": "inhibit"},
      {"measurement": "inhibition of mutagenicity of aflatoxin B1", "setting": "Salmonella typhimurium", "value": "inhibit"},
      {"measurement": "inhibition of mutagenicity of benzo[a]pyrene", "setting": "Salmonella typhimurium", "value": "inhibit"},
      {"measurement": "inhibition of mutagenicity of methylnitrosourea", "setting": "Salmonella typhimurium", "value": "inhibit"},
      {"measurement": "inhibition of binding to tRNA of aflatoxin B1", "setting": "tRNA", "value": "inhibited"},
      {"measurement": "inhibition of binding to tRNA of benzo[a]pyrene", "setting": "tRNA", "value": "inhibited"}
    ]},
    {"molecule": "bovine serum albumin: potential stabilizing agent added to the enzyme", "values": [
      {"measurement": "effect of potential stabilizing agent on enzyme stability", "setting": "[1]; [8]", "value": "did not enhance stability"}
    ]},
    {"molecule": "CC(=O)CC(C)=O", "note": "[Acetylacetone, pentane-2,4-dione]", "values": [
      {"measurement": "pH up to which the substrate is accepted by the enzyme", "setting": "[2]; activity-pH-relationship studies", "value": "≤ 9"},
      {"measurement": "Vmaxrel.", "setting": "[2]; apparent, relative to acetylacetone = 1.00, purified wild-type enzyme", "value": 1.00},
      {"measurement": "KO2", "setting": "[2]; apparent, polarographic, estimated from rate of oxygen depletion, substrate 0.5-1 mM", "value": "38 ± 6", "unit": "µM"},
      {"measurement": "fetotoxicity", "setting": "[3]; in vivo", "value": "fetotoxicity was observed"},
      {"measurement": "immune system toxicity", "setting": "[3]; [9]", "value": "possible immune system toxicity"},
      {"measurement": "neurotoxicity", "setting": "[3]; [9]", "value": "central neurotoxicity"},
      {"measurement": "acetate found per mmol of acetyl-acetone cleaved", "setting": "[4]", "value": "one"},
      {"measurement": "Vmax clone", "setting": "[5]", "value": 1.00},
      {"measurement": "Vmax wild-type", "setting": "[6]", "value": 1.00},
      {"measurement": "Substrate % (remaining)", "setting": "[7]; remaining substrate calculated", "value": 0, "unit": "%"},
      {"measurement": "Acetate %", "setting": "[7]; oxygen saturated buffer", "value": 50, "unit": "%"},
      {"measurement": "Methylglyoxal %", "setting": "[7]; oxygen saturated buffer", "value": 50, "unit": "%"}
    ]},
    {"molecule": "OCC(O)CO", "note": "[glycerol]", "values": [
      {"measurement": "effect of potential stabilizing agent on enzyme stability", "setting": "[1]; [8]", "value": "did not enhance stability"}
    ]},
    {"molecule": "CC(=O)CC(=O)c1ccccc1", "note": "[benzoylacetone]", "values": [
      {"measurement": "inhibition of mutagenicity of 2-naphthohydroxamic acid", "setting": "Salmonella typhimurium", "value": "inhibit"},
      {"measurement": "inhibition of binding to tRNA of benzo[a]pyrene", "setting": "tRNA", "value": "inhibited"}
    ]},
    {"molecule": "O=C1CC(=O)c2ccccc21", "note": "[1,3-indandione]", "values": [
      {"measurement": "inhibition of mutagenicity of aflatoxin B1", "setting": "Salmonella typhimurium", "value": "inhibit"},
      {"measurement": "inhibition of mutagenicity of benzo[a]pyrene", "setting": "Salmonella typhimurium", "value": "inhibit"},
      {"measurement": "inhibition of mutagenicity of methylnitrosourea", "setting": "Salmonella typhimurium; concomitant exposure to inhibitor and mutagen necessary", "value": "inhibit"},
      {"measurement": "inhibition of binding to tRNA of aflatoxin B1", "setting": "tRNA", "value": "inhibited"}
    ]},
    {"molecule": "CC(=O)CC(=O)C(F)(F)F", "note": "[1,1,1-trifluoroacetylacetone]", "values": [
      {"measurement": "inhibition of binding to tRNA of aflatoxin B1", "setting": "tRNA", "value": "inhibited"}
    ]},
    {"molecule": "O[C@H](CS)[C@H](O)CS", "note": "(racemic) [dithiothreitol]", "values": [
      {"measurement": "effect of potential stabilizing agent on enzyme stability", "setting": "[1]", "value": "did not enhance stability"}
    ]},
    {"molecule": "B1", "values": [
      {"measurement": "apparent Vmax of the purified enzyme", "setting": "[2]; acetylacetone as substrate", "value": 10.5, "unit": "U/mgEnzyme"},
      {"measurement": "halftime-stability", "setting": "[1]; 0.05 mg/mL protein concentration, 4° C.", "value": 3550, "unit": "min"},
      {"measurement": "pH of maximum stability", "setting": "[1]; enzyme incubated at pH 5.0-9.0", "value": "7.5-8.0"},
      {"measurement": "pH of maximum activity", "setting": "[1]; oxygen electrode, KH2PO4-buffers pH 5.0-9.0", "value": "6.0-7.5"}
    ]}
  ]
}
